Assay results from patent EP0392663A1, “Carboline derivative as a 5-HT3 receptor antagonist” (ONO PHARMACEUTICAL CO., LTD., priority 1989, dated 1990).
Counter-ions that a name gives are not always drawn.

What was measured:
5-HT₃ receptor = assay: Suppression of 5-HT-induced reflex bradycardia in urethane-anesthetized rats (5-HT₃ receptor antagonism in vivo); set-up: species or system Male Wistar rats; conditions: 5-HT i.v. 2 mins after
Procedure: Male Wistar rats were urethane-anesthetized and fixed. Cannulas were inserted to carotid artery and thigh vein as used for the recording of blood pressure end heart beat, and for the administration of compounds, respectively.
Several amounts of compound of the present invention were administered to the vein or duodenum. 5-HT was administered rapidly to the vein, 2 mins after. The suppression effect of the compounds was confirmed by the measurement of reflex bradycardia generated. (Nature 316, 11 (1985).)

[1] = Acute toxicity (LD₅₀) in mice; conditions: mouse, in vivo
Procedure: It was confirmed that the toxicity of the compounds of the present invention were very low. Therefore, the compounds of the present invention may be considered to be sufficiently safe and suitable for pharmaceutical use.
For example, the values of acute toxicity (LD₅₀) of 2-(5-methylimidazol-4-ylmethyl)-5-methyl-1,2-dihydro-γ--carbolin-1-one hydrochloride was 290 mg/kg animal body weight by oral administration and 48 mg/kg animal body weight by intravenous administration in mice, respectively.

Molecule Cc1[nH]cnc1Cn1ccc2c(c1=O)c1ccccc1n2C [2-(5-methylimidazol-4-ylmethyl)-5-methyl-1,2-dihydro-γ-carbolin-1-one hydrochloride] has an ID₅₀ i.d. (5-HT₃ receptor; compound administered to the duodenum) of 7.7 mg/kg, an ID₅₀ i.v. (5-HT₃ receptor; compound administered to the vein) of 0.3 mg/kg and an LD50 ([1]; intravenous administration) of 48 mg/kg. The LD50 ([1]; oral administration) was 290 mg/kg.
